Counter-ions that a name gives are not always drawn. Like-named read-outs stand apart in the source and are kept apart here.
Columns and labels:
[1] = system: U373 cells; experiment: Adhesion of glioblastoma cells to ECM protein-coated plates; format: cell-based, human; settings: for IC50: Homo sapiens, U373 MG
Experimental: In vitro adhesion assays were performed to (a) study the baseline adhesive properties of various glioblastoma cell lines and (b) evaluate the effects of quinazoline derivatives on the adhesive properties of glioblastoma cells. The plates for the adhesion assays were precoated with the extracellular matrix proteins laminin, fibronectin or type IV collagen (each at a final concentration of 1 μg/ml in PBS) overnight at 4° C. and dried. On the day of the experiment, the wells were rehydrated and blocked with 10% bovine serum albumin in PBS for 1 hour at room temperature and used for the adhesion assays, as described below.
DMSO (0.1%) was included as a vehicle control. After treatment, cells were detached from the flasks with 0.05% trypsin (Life Technologies) resuspended in DMEM, incubated at 37° C. for 2 hours to allow them to recover from the trypsinization stress and examined for their ability to adhere to plates precoated with ECM proteins.
In adhesion assays, cells were centrifuged, washed twice with serum-free DMEM, counted and resuspended in serum-free DMEM to a final concentration of 2.5×10^5 cells/ml. One hundred μl of the cell suspension containing 2.5×10^4 cells were added to each well and cells were allow d to adhere for 1 hour at 37° C. in a humidified 5% CO2 atmosphere. The adherent fraction was quantitated using MTT (3-[4,5-dimethylthiazol-2-yl]-2,5-diphenyltetrazolium bromide) assays. […] The adherent fractions of cells treated with quinazoline derivatives were compared to those of DMSO-treated control cells and the percent inhibition of adhesion was determined sing the formula: [formula]
Each treatment condition was evaluate d in duplicate in 3 independent experiments.

[2] = system: U373 human glioblastoma cell line; experiment: MTT cytotoxicity assay, U373 glioblastoma cells; settings: for IC50: Homo sapiens, U373 MG
Experimental: (§1) The cytotoxicity assay of various compounds against human brain tumor cell lines was performed using the MTT (3-[4,5-dimethylthiazol-2-yl]-2,5-diphenyl tetrazolium bromide) assay (Boehringer Mannheim Corp., Indianapolis, Ind.). Briefly, exponentially growing brain tumor cells were seeded into a 96-well plate at a density of 2.5×10^4 cells/well and incubated for 36 hours at 37° C. prior to drug exposure. […] Triplicate wells were used for each treatment.
Human glioblastoma cell line U373 was obtained from American. Type Culture Collection (Rockville, Md.) and maintained as a continuous cell line in Dulbecco's modified Eagles's medium supplemented with 10% fetal bovine serum and antibiotics. The B-lineage acute lymphoblastic leukemia cell line Nalm-6 was used as a negative control.
(§2) The cells were incubated with the various compounds for 24-36 hours at 37° C. in a humidified 5% CO2 atmosphere. To each well, 10 μl of MTT (0.5 mg/ml final concentration) was added and the plates were incubated at 37° C. for 4 hours to allow MTT to form formazan crystals by reacting with metabolically active cells. The formazan crystals were solubilized overnight at 37° C. in a solution containing 10% SDS in 0.01 M HCl. The absorbence of each well was measured in a microplate reader (Labsystems) at 540 nm and a reference wavelength of 690 nm. To translate the OD540 values into the number of live cells in each well, the OD540 values were compared to those on standard OD540—versus—cell number curves generated for each cell line. The percent survival was calculated using the formula: [formula]
(§3) The IC50 values were calculated by non linear regression analysis.

[3] = system: U87 human glioblastoma cell line; experiment: MTT cytotoxicity assay, U87 glioblastoma cells; format: cell-based; settings: Homo sapiens, unconjugated compound, read-out: IC50 value
Experimental: as §1, §2, §3
Apoptosis was also evaluated using the nick-end-labeling assay, as described for Example 3.

[4] = system: NALM-6 leukemia cells; experiment: MTT cytotoxicity assay, EGF-R negative leukemia cells (negative control line); format: cell-based; settings: NALM-6; FIG. 5B
Experimental: Triplicate wells were used for each treatment.
Human glioblastoma cell line U373 was obtained from American.
The percent survival was calculated using the formula: [formula]

[5] = system: U373 human glioblastoma cells; experiment: SCID mouse xenograft model of human glioblastoma; settings: 1 mg/kg/day×10 days i.p.
Experimental: The right hind legs of the CB. 17 SCID mice were inoculated subcutaneously (s.c.) with 0.5×10^6 U373 human glioblastoma cells in 0.2 mL PBS. […] Daily treatments with PBS, unconjugated EGF (1 mg/kg/dose), and unconjugated WHI-P154 (1 mg/kg/dose) were used as controls. Mice were monitored daily for health status and tumor growth, and were sacrificed if they became moribund developed tumors which impeded their ability to attain food or water, at the end of the 3-month observation period. Tumors were measured using Vernier calipers twice weekly, and the tumor volumes were calculated according to the following formula (Friedman, S. H., mDolan, M. E., Pegg, A. E., Marcelli, S., Keir, S., Catino, J. J., Binger, D. D., Schold, S. C., Jr., 1995, Cancer Res., 55:2853-2857): [formula]
For histopathologic studies, tissues were fixed in 10% neutral buffered formalin, dehydrated, and embedded in paraffin by routine methods. Glass slides with affixed 6 micron tissue sections were prepared and stained with hematoxylin/eosin. Primary endpoints of interest were tumor growth and tumor-free survival outcome. Estimation of life table outcome and comparisons of outcome between groups were done, as previously reported (Waurzyniak, et al., 1997, Clinical Cancer Research 3:881-890; Anderson, et al., 1995, Cancer Res. 55:1321-1327; Uckun, et al., 1997, J. Clin. Oncol. 15:2214-2221).

[6] = system: U373 glioblastoma cells; experiment: Glioblastoma cell invasion through Matrigel matrix (Boyden chambers); format: cell-based; settings: Homo sapiens, U373 MG
Experimental: The in vitro invasiveness of glioblastoma cells was assayed using a previously published method which employs Matrigel-coated Costar 24-well transwell cell culture chambers (“Boyden chambers”) with 8.0-μm-pore polycarbonate filter inserts (Albini, A., Iwamoto, Y., Kleinman, H. K., Martin, G. R., Aaronson, S. A., Kozlowski, J. M., and McEwan, R. N., 1987, Cancer Res., 47:3239-3245). The chamber filters were coated with 50 μg/ml of Matrigel matrix, incubated overnight at room temperature under a laminar flow hood and stored at 4° C. Matrigel matrix is made up of several components of the extralcellular matrix (ECM), including collagens, laminin and proteo-glycans
On the day of the experiment, the coated inserts were rehydrated with 0.5 ml serum-free DMEM containing 0.1% bovine serum albumin for 1-2 hours. To study the effects of quinazoline derivatives on invasiveness of glioblastoma cells, exponentially growing cells were incubated overnight with WHI-P97, WHI-P131 and WHI-P154 at various concentrations ranging from 1 μM to 50 μM. The cells were trypsinized, washed twice with serum-free DMEM containing BSA, counted and resuspended at 1×10^5 cells/ml. 0.5 ml cell suspension containing 5×10^4 cells in a serum-free DMEM containing quinazoline compounds or vehicle was added to the Matrigel-coated and rehydrated filter inserts. Next, 750 μl of NIH fibroblast conditioned medium was placed as a chemoattractant in 24-well plates and the inserts were placed in wells and incubated at 37° C. for 48 hours. […] The invasive cells that migrated to the lower side of the filter were fixed, stained with Hema-3 solutions and counted under microscope. Five to 10 random fields per filter were counted to determine the mean (±SE) values for the invasive fraction. The invasive fractions of cells treated with quinazoline derivatives were compared to those of DMSO treated control cells and he percent inhibition of invasiveness was determined using the formula: [formula]
Each treatment condition was evaluated in duplicate in 3 independent experiments. IC50 values were calculated by non-linear regression analysis using Graphpad Prisin Software Version 2.0 (Graphpad Software Inc., San Diego, Calif.).

[7] = one bound for all three coatings, read-out: all IC50 values, adhesion to laminin-, fibronectin- and collagen-coated plates
[8] = U373, 3 independent experiments, 48 hours, read-out: mean IC50 value, invasion through Matrigel matrix
[9] = U373, 3 independent experiments, read-out: range of IC50 values, invasion through Matrigel matrix
[10] = read-out: IC50 value derived from the average values of three experiments, invasion

Question: Which IC50 [1, 7] does the source give for COc1cc2ncnc(Nc3cccc(Br)c3)c2cc1OC [WHI-P79, 4-(3′-Bromophenyl)-amino-6,7-dimethoxyquinazoline] here?
Answer: > 50 µM

Question: For O=c1c(-c2ccc(O)cc2)coc2cc(O)cc(O)c12 [genistein, reference compound], which IC50 ([2]; read-out: IC50 value) is on record?
Answer: > 250 µM

Question: And the “cytotoxicity against brain tumor cells (in words)” value ([2]; U373, MTT, 0.1 to 250 μM, FIGS. 1A and 1B)?
Answer: also ineffective

Question: And the “inhibition of glioblastoma cell adhesion (in words)” value ([1]; ECM-coated plates)?
Answer: did not affect glioblastoma cell adhesion and motility

Question: For COc1cc2ncnc(Nc3cc4ccccc4cc3O)c2cc1OC (as salt: salt) [WHI-P292, 4-(2′-Hydroxy-naphthyl-3′)-amino-6,7-dimethoxyquinazoline], which melting point is on record?
Answer: 277 to 279 °C

Question: With COc1cc2ncnc(Nc3ccc(O)c(Br)c3)c2cc1OC [WHI-P154, 4-(3′-Bromo-4′-hydroxylphenyl)-amino-6,7-dimethoxyquinazoline] as the compound, how does the IC50 ([2]; read-out: composite survival curve IC50 value) read?
Answer: 158 µM

Question: And the IC50 ([2]; read-out: mean (±SE) IC50 value)?
Answer: 167 ± 26.9 µM

Question: What about the IC50 [3] of the same compound?
Answer: 179 ± 18.5 µM

Question: What about the “cytotoxicity against EGF-R negative leukemia cells (in words)” value [4] of the same compound?
Answer: marked cytotoxicity

Question: What about the “time at which tumors reached a size of 50 mm^3” value [5] of the same compound?
Answer: 36.0 ± 5.1 days

Question: And the median tumor-free survival ([5]; N=5)?
Answer: 19 days

Question: And the IC50 ([1]; 16 hours treatment, N=3, read-out: mean IC50 value, adhesion to collagen-coated plates)?
Answer: 42.7 ± 2.5 µM

Question: And the IC50 ([1]; 16 hours treatment, N=3, read-out: mean IC50 value, adhesion to fibronectin-coated plates)?
Answer: 29.8 ± 3.1 µM

Question: And the IC50 ([1]; 16 hours treatment, N=3, read-out: mean IC50 value, adhesion to laminin-coated plates)?
Answer: 36.1 ± 3.5 µM

Question: What about the IC50 [6, 8] of the same compound?
Answer: 4.46 ± 0.8 µM

Question: And the IC50 [6, 9]?
Answer: 3.53 to 5.01 µM

Question: And the IC50 [6, 10]?
Answer: 5.2 µM

Question: For COc1cc2ncnc(Nc3ccc(C)c(Br)c3)c2cc1OC [WHI-P111, 4-(3′-Bromo-4′-methylphenyl)-amino-6,7-dimethoxyquinazoline], which melting point is on record?
Answer: 225 to 228 °C

Question: Which IC50 [1, 7] does the source give for COc1cc2ncnc(Nc3ccc(O)cc3)c2cc1OC [WHI-P131, 4-(4′-Hydroxylphenyl)-amino-6,7-dimethoxyquinazoline] here?
Answer: > 50 µM

Question: And the IC50 [6, 8]?
Answer: 7.07 ± 1.8 µM

Question: What about the IC50 [6, 9] of the same compound?
Answer: 5.08 to 8.59 µM

Question: And the IC50 [6, 10]?
Answer: 7.95 µM

Question: With COc1cc2ncnc(Nc3cc(Br)c(O)c(Br)c3)c2cc1OC [WHI-P97, 4-(3′, 5′-Dibromo-4′-hydroxylphenyl)-amino-6,7-dimethoxyquinazoline] as the compound, how does the IC50 [6, 8] read?
Answer: 10.6 ± 1.8 µM

Question: What about the IC50 [6, 9] of the same compound?
Answer: 9.57 to 11.6 µM

Question: And the IC50 [6, 10]?
Answer: 9.58 µM

Question: Which IC50 [2] does the source give for COc1cc2ncnc(Nc3cc4ccccc4cc3O)c2cc1OC [WHI-P292, 4-(2′-Hydroxy-naphthyl-3′)-amino-6,7-dimethoxyquinazoline] here?
Answer: 38.2 µM

Source: patent US6552027B2, “Quinazolines for treating brain tumor” (Parker Hughes Institute, priority 1998, dated 2003)
